Laboratory results as given in patent US7998739B2, “Methods of activating NKT cells” (The Scipps Research Institute, priority 2004, dated 2011).
“Also recorded” adds a separate entry of the source. Each block holds one compound with its values, some of them ahead of it.

Tests used:
[1] = system: human Vα24 NKT line; assay: Cytokine secretion by human Vα24 NKT line stimulated with glycolipid-pulsed antigen presenting cells (ELISA); assay type: cell-based; settings: for stimulation of human Vα24 NKT cells: in the presence of antigen-presenting cells; for Th1 (IFNγ) cytokine secretion by polyclonal human NKT line / Th2 (IL4) cytokine secretion by polyclonal human NKT line: 100 ng/ml in FIG. 3C right panel
Protocol: FIG. 3C left panel depicts IFN-γ production by a human Vα24 NKT line stimulated with a range of concentrations of iGb3 and αGalCer in the presence of irradiated PBMC as CD1d-expressing antigen presenting cells. The right panel depicts IFN-γ vs. IL-4 production by the human Vα24 NKT line in response to irradiated PBMC and 100 ng/ml of iGb3 of synthetic, purified and enzymatic origin, vs. 100 ng/ml of αGalCer, Gb3 or LacCer, as indicated.
(§1) CD1d-restricted T cell responses. Antigen presenting cells were mouse spleen cells cultured at 5×10^5 cells/well, mouse bone marrow-derived dendritic cells generated in the presence of GMC-SF and IL4, activated overnight with 10 ng/ml TNF-α and cultured at 5×10^4 cells/well, and human PBMC or GM-CSF/IL-4 cultured PBMC-derived dendritic cells cultured at 2.5×10^5 cells/well. NKT hybridomas were cultured at 5×10^4 cells/well and the human NKT line was cultured at 2.5×10^5 cells/well. Cytokines released in the culture supernatant were measured by standard ELISA for human IL-4 and IFN-γ (Pharmingen-Becton Dickinson, CA), and the indicator CTLL IL2 bioassay for mouse hybridomas. NKT hybridomas DN32.D3 (Vα14^+), TCBII (Vα14^−), TBA7 (Vα14^−) and the rat basophil leukemia RBL.CD1d transfectant line were used as described in Park, S-H et al., J. Immunol. 160 3128-34 (1998), incorporated herein by reference in its entirety. The human polyclonal Vα24Vβ11 NKT line was derived by repeated αGalCer stimulation of healthy human PBL in vitro and maintained by PHA and IL2 restimulation, and two different subclones, CD4 and DN, were used in experiments. Griffonia Simplicifolia isolectin B4 (IB4) was from Vector Laboratories, and anti-human CD1d mAb 51 was obtained from Dr. S. Porcelli. For stimulation with synthetic glycolipids, APCs were pulsed for 6 hours with various concentrations of lipids (from stock solution in DMSO), washed and incubated with NKT cell hybridoma or cell lines for 18-24 hours.

[2] = system: NKT cell hybridoma DN32.D3; assay: Cell-free presentation to DN32.D3 by plate-bound CD1d in the presence of saposin B (IL-2 release); assay type: cell-based, mouse; settings: lipid 6 μg/ml
Source text: (§2) FIG. 4C left panel depicts in vitro loading of iGb3 and iGb4 onto recombinant CD1d in the presence of saposin B, visualized by isoelectrofocusing.
CD1d lipid loading and cell-free presentation assay. Purified complexes of CD1 d-GT were made and exchange of lipid in these complexes was quantified from isoelectric focusing gels as previously described by Cantu C III, et al., J. Immunol. 170, 4673-82 (2003), incorporated herein by reference in its entirety. Saposin-mediated loading of lipid was performed with recombinant human saposin B as described in Zhou D et al., Science 303, 523-27 (2004), incorporated herein by reference in its entirety, and with mouse saposin B. Recombinant mouse saposin B was expressed in a fly expression system and purified in the same manner used for production of mouse CD1d, described in Benlagha K, et al., J. Exp. Med 191, 1895-1903 (2000), incorporated herein by reference in its entirety. […] Stimulation of the NKT cell hybridoma DN32.D3 was measured. Briefly, mouse CD1d protein was coated for 24 h at 1 μg/well in phosphate-buffered saline (PBS) on 96-well plates. Plates were washed three times with PBS and then incubated for another 24 h with a constant lipid concentration of 6 μg/ml and various concentrations of mouse saposin B. Plates were washed three times with PBS; then 2×10^4 hybridoma cells were added. […]

[3] = system: mouse Vα14 hybridoma DN32.D3; assay: Stimulation of mouse Vα14 NKT hybridomas by glycolipids with bone marrow-derived dendritic cells (CTLL IL2 bioassay); assay type: cell-based; settings: for presentation to DN32.D3 by Hexb−/− cells: bone marrow-derived DC from Hexb−/− mice; for stimulation of mouse Vα14 NKT cells: in the presence of antigen-presenting cells
Protocol: FIG. 4A depicts stimulation of mouse Vα14 hybridoma DN32.D3 by iGb3 and iGb4 with bone marrow-derived DC as CD1d-expressing antigen-presenting cells from Hexb^−/−, Hexb^−/− and CD1-TD mice, as indicated.
as §1

[4] = biological target: T1, mCD1d-GT (mouse CD1d preloaded with GT1b) (Mus musculus, UniProt P11609); assay: CD1d lipid loading in the presence of saposin B, visualized by isoelectrofocusing; assay type: binding; settings: cell-free; for replacement of GT1b preloaded onto CD1d: 2 μM mCD1d-GT, 25 μM isogloboside, with or without 5 μM saposin B
T1 construct: made in house; host or cells: fly expression system
T1 sequence (P11609 19-297 limits assumed): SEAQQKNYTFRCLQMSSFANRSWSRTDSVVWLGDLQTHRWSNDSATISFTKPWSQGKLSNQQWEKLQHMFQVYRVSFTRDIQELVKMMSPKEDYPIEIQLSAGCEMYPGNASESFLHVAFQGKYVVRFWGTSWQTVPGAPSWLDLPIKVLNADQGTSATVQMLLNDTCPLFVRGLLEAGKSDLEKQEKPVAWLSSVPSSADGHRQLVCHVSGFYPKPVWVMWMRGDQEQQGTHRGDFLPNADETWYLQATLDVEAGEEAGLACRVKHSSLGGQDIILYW
T1 sequence (P01887 21-119 partner): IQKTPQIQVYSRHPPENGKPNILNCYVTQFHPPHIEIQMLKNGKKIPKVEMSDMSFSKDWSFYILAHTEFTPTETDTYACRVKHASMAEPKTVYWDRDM
Source text: as §2
CD1d lipid loading and cell-free presentation assay. Purified complexes of CD1 d-GT were made and exchange of lipid in these complexes was quantified from isoelectric focusing gels as previously described by Cantu C III, et al., J. Immunol. 170, 4673-82 (2003), incorporated herein by reference in its entirety. Saposin-mediated loading of lipid was performed with recombinant human saposin B as described in Zhou D et al., Science 303, 523-27 (2004), incorporated herein by reference in its entirety, and with mouse saposin B. Recombinant mouse saposin B was expressed in a fly expression system and purified in the same manner used for production of mouse CD1d, described in Benlagha K, et al., J. Exp. Med 191, 1895-1903 (2000), incorporated herein by reference in its entirety. […] Stimulation of the NKT cell hybridoma DN32.D3 was measured. Briefly, mouse CD1d protein was coated for 24 h at 1 μg/well in phosphate-buffered saline (PBS) on 96-well plates. Plates were washed three times with PBS and then incubated for another 24 h with a constant lipid concentration of 6 μg/ml and various concentrations of mouse saposin B. Plates were washed three times with PBS; then 2×10^4 hybridoma cells were added. Supernatants were collected after 24 h to measure IL-2 release.

[5] = system: Vα14 DN32.D3 hybridoma; assay: Vα14 DN32.D3 hybridoma stimulation by spleen cells pulsed with αGalCer variants; assay type: cell-based, mouse
Source text: FIG. 2B depicts Vα14 DN32.D3 hybridoma stimulation responses to spleen cells from Hexb^−/− (o) and Hexb^−/− littermates (●), αGalAl-(▪) and CD1-TD knock-in (▴) mice. Spleen cells were pulsed with αGalCer variants as indicated prior to hybridoma stimulation. The data are representative of 2 separate experiments.
as §1, with “hours. […]” for “hours.”

[6] = system: non-Vα14 hybridomas; assay: Stimulation of non-Vα14 hybridomas by glycolipid presented by bone marrow-derived dendritic cells; assay type: cell-based, mouse; settings: not shown
Protocol: as §1, with “For stimulation with synthetic glycolipids, APCs were pulsed for 6 hours with various concentrations of lipids (from stock solution in DMSO), washed and incubated with NKT cell hybridoma or cell lines for 18-24 hours.” left out

[7] = system: human Vα24 NKT cells; assay: Expansion of hVα24 NKT cells in 4-day cultures of fresh PBMC (anti-Vα24 / CD1d-αGalCer tetramer staining); assay type: cell-based; settings: 100 ng/ml
Protocol: FIG. 3B depicts frequency of hVα24 NKT PBL, doubly-stained by anti-Vα24 and CD1d-αGalCer tetramers, in PBMC cultured for 4 days in the presence of 100 ng/ml αGalCer, iGb3, or medium alone, as indicated.
Lymphocyte preparation and flow cytometry. Lymphocyte preparations, CD1d-αGalCer tetramers, and flow cytometry staining were done according to standard protocols, e.g., those described in Zhou D et al., Science 303, 523-27 (2004), incorporated herein by reference in its entirety.
Chemically synthesized globotrihexosylceramide (Gb3, Gal α1,4 Gal β1,4 Glc β1,1 Cer) and isoglobotrihexosylceramide (iGb3, Gal α1,3 Gal β1,4 Glc β1,1 Cer) were tested for their ability to stimulate NKT cells in the presence of antigen-presenting cells.

[8] = system: hVα24 NKT line; assay: Inhibition of the response of the hVα24 NKT line to PBMC-derived dendritic cells (GMCSF release, ELISA); assay type: cell-based, human; settings: PBMC-derived dendritic cells plus exogenous ligand
Protocol: as §1, with “Cytokines released in the culture supernatant were measured by standard ELISA for human IL-4 and IFN-γ (Pharmingen-Becton Dickinson, CA), and the indicator CTLL IL2 bioassay for mouse hybridomas.” left out

[9] = presented by irradiated PBMC, listed as Synthetic iGb3
[10] = presented by irradiated PBMC, listed as iGb3 produced in vitro by action of iGb3 synthase
[11] = presented by irradiated PBMC, listed as natural iGb3 purified from cat intestine

loading onto mCD1d-GT by mouse versus human saposin B [4]: equally loaded
Compound: CCCCCCCCCCCCC/C=C/[C@@H](O)[C@H](COC1OC(CO)C(OC2OC(CO)C(O)C(OC3OC(CO)C(O)C(OC4OC(CO)C(O)C(O)C4NC(C)=O)C3O)C2O)C(O)C1O)NC(=O)CCCCCCCCCCCCCCCCCCCCCCCCC (stereo partly shown) [iGb4]
stimulation of human Vα24 NKT cells [1]: stimulatory | direct stimulation of Vα14 NKT cells by CD1d/lipid complexes [2]: very weak response | presentation to DN32.D3 by Hexb−/− cells [3]: failed to present | stimulation of mouse Vα14 NKT cells [3]: stimulatory | replacement of GT1b preloaded onto CD1d [4]: partial replacement; also recorded: required saposin B

Compound: GalNAc β1,4 Gal αCer
presentation to DN32.D3 by Hexb−/− cells [5]: selective defect

Compound: Gal α1,2 Gal αCer
presentation to DN32.D3 by α-Galactosidase A (αGalA)−/− cells [5]: selective defect

loading onto mCD1d-GT by mouse versus human saposin B [4]: equally loaded
Compound: CCCCCCCCCCCCC/C=C/[C@@H](O)[C@H](CO[C@@H]1O[C@H](CO)[C@@H](O[C@@H]2O[C@H](CO)[C@H](O)[C@H](O[C@H]3O[C@H](CO)[C@H](O)[C@H](O)[C@H]3O)[C@H]2O)[C@H](O)[C@H]1O)NC(=O)CCCCCCCCCCCCCCCCCCCCCCCCC [iGb3, isoglobotrihexosylceramide]
stimulation of non-Vα14 hybridomas [6]: failed to stimulate 3/3 | stimulation of human Vα24 NKT cells [1]: potent stimulator | Th1 (IFNγ) cytokine secretion by polyclonal human NKT line [1, 9]: stimulated potent | Th2 (IL4) cytokine secretion by polyclonal human NKT line [1, 9]: stimulated potent | Th1 (IFNγ) cytokine secretion by polyclonal human NKT line [1, 10]: levels comparable to αGalCer | Th2 (IL4) cytokine secretion by polyclonal human NKT line [1, 10]: levels comparable to αGalCer | Th1 (IFNγ) cytokine secretion by polyclonal human NKT line [1, 11]: levels comparable to αGalCer | Th2 (IL4) cytokine secretion by polyclonal human NKT line [1, 11]: levels comparable to αGalCer | cloned CD4 and DN human NKT lines showing cytokine secretion ([1]; presented by irradiated PBMC, lines responding/tested, not shown): 2/2 | direct stimulation of Vα14 NKT cells by CD1d/lipid complexes [2]: directly stimulated | presentation to DN32.D3 by Hexb−/− cells [3]: presented | other individual mVα14 hybridomas stimulated ([3]; bone marrow-derived dendritic cells, hybridomas responding/tested, not shown): 5/5 | stimulation of mouse Vα14 NKT cells [3]: potent stimulator | stimulation of mVα14 NKT cell hybridoma DN32.D3 ([3]; presented by CD1d-expressing bone marrow-derived dendritic cells): stimulated | stimulation and expansion of human NKT cells (frequency of hVα24 NKT PBL) [7]: selectively stimulated and expanded | replacement of GT1b preloaded onto CD1d [4]: partial replacement; also recorded: required saposin B

Compound: CCCCCCCCCCCCCCCCCCCCCCCCCC(=O)N[C@@H](CO[C@H]1O[C@H](CO)[C@H](O)[C@H](O)[C@H]1O)[C@H](O)[C@H](O)CCCCCCCCCCCCCC [αGalCer, α-galactosylceramide, reference compound]
GMCSF release in the supernatant, control without lectin [8]: 939 pg/mL | stimulation and expansion of human NKT cells (frequency of hVα24 NKT PBL) [7]: selectively stimulated and expanded

Compound: Gal α1,4 Gal αCer
presentation to DN32.D3 by α-Galactosidase A (αGalA)−/− cells [5]: selective defect
